Test results as given in patent US20040152994A1, “Liver function test” (priority 2001, published 2004).

Tested on: hepatic glycine conjugation
Conditions: in vivo
Description: The test is carried out in the morning on an empty stomach after an overnight fast.
To equilibrate the body's glycine pool, an oral bolus of 3 g of glycine dissolved in 200 ml of water is given 1 hour prior to tracer administration.
At t=0 min, a weight adjusted dose of [^13C−1]-glycine (eg. 150 mg for 44.5 to 95.2 kg body weight) was given orally. Breath samples are taken subsequently every 10 minutes over a period of 300 minutes.
At t=160 min, a second dose of [^13C−1]-glycine was given, followed by three equal dozes of sodium benzoate (eg. 284.2 mg) at 170, 180 and 190 minutes.
Breath samples are measured for ^13CO2 content above base line, ie. the mean of 3 pre-test samples. Time to peak of ^13CO2 exhalation, ^13CO2 exhalation in percentage of given dose [% dose/hour] and cumulative ^13CO2 exhalation over time are determined. Mathematical modelling of the various curves is used to de-convolute the dose recovery curves of parts A and B.
The breath test consisted of two parts, A and B, that were at first carried out on 2 consecutive days and later combined into an one-day protocol.
Part A; After an overnight fast, subjects were given orally a weight adjusted dose of the tracer ^13C-glycine dissolved in water
Part B: After an, overnight fast, subjects were given orally the same amount of tracer plus an optimised amount of sodium benzoate.
For the one-day protocol, part B commenced 130 min after the start of part A.
Breath samples were collected in 10 min intervals.
10 volunteers (5 women, 5 men) with no medical history of liver problems were used as control group.
9 in-patients (6 women, 3 men) with varying stages of liver failure and different disease etiology were tested. Ethical approval for this ^13CO2-breath test, study was sought and obtained from the Tayside Healthboard Ethics Committee.

NC[13C](=O)O [^13C-glycine, [^13C−1]-glycine]
Time to peak PDR in patients compared to the control group: significantly delayed
highest GCa-value (apparent glycine conjugation) in patients: 23.26%
mean PDRm ratio: 0.59
